≈ marks a conversion by molar mass, not a printed value. Where “and” joins values, the source holds several entries; their conditions need not be identical. Equal entries are not always repeated. Where two headings read alike, the source gives them in different places. Values belong to the compound of their own block, whether it stands above or below them.
Key:
[1] = system: Staphylococcus aureus NCTC 13373 (mecA-positive; methicillin-resistant); assay: In vitro antibacterial activity, MIC (UCL School of Pharmacy assay), MRSA; type: cell-based; settings: for MIC: Staphylococcus aureus
In short: (§1)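 Strains: MRSA NCTC 13373, MSSA ATCC 25923, vanA E. faecalis ATCC 51299. Overnight agar growth suspended in PBS, A600 0.1, diluted 1:100 into isosensitest broth; 2-fold compound dilutions 32–0.03 μg/mL, ≤2% DMSO. Vancomycin QC.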

LogD7.4 (Chrom Log D) = type: physicochemical
Excerpt: (§2) To guide our initial SAR exploration work, we obtained liver microsomal intrinsic clearance data for 5 of the 18 compounds assayed by CO-ADD (Supporting Information - CDCO Report and Supporting Information - Biology). We then acquired intrinsic clearance (CLint), plasma protein binding (PPB), and solubility data on further compounds throughout the SAR campaign (Supporting Information - Biology, Tables S3 and S4). […] The more polar compounds (lower LogD) had reduced PPB and were more metabolically stable.
(§3) Table S4. ADME and Pharmacokinetics: compounds only appearing in the Supplementary […]
(§4) MRSA Aqueous HLM CLint Rat Hep CLint
(§5) Cmpd MIC Solubility Human PPB (%) (µL/min/mg (µL/min/10x6 LogD7.4
(§6) (µg/mL) (µM) protein) cells)
(§7) ADME and toxicity for compounds were measured according to procedures outlined in the manuscript submitted in parallel to this one;2 other procedures were used for those compounds analysed by Monash University (in vitro ADME) or UCL (toxicity), both described in the main

Aqueous solubility = type: physicochemical; settings: for solubility: thermodynamic from solid
Excerpt: as §2, §3, §4, §5, §6, §7

[2] = Human plasma protein binding (PPB); type: in vitro ADME; settings: human, plasma
Excerpt: (§8) To guide our initial SAR exploration work, we obtained liver microsomal intrinsic clearance data for 5 of the 18 compounds assayed by CO-ADD (Supporting Information - CDCO Report and Supporting Information - Biology). We then acquired intrinsic clearance (CLint), plasma protein binding (PPB), and solubility data on further compounds throughout the SAR campaign (Supporting Information - Biology, Tables S3 and S4).
as §3, §4, §5, §6, §7

[3] = Rat hepatocyte intrinsic clearance; type: in vitro ADME
Excerpt: as §8, §3, §4, §5, §6, §7

[4] = system: S. aureus ATCC 25923 (methicillin-susceptible); assay: In vitro antibacterial activity, MIC (UCL), MSSA; type: cell-based, Staphylococcus aureus; settings: for MIC: Staphylococcus aureus
In short: as §1

[5] = Human liver microsome intrinsic clearance; type: in vitro ADME
Excerpt: as §8, §3, §4, §5, §6, §7

[6] = system: PMM (primary mouse macrophages); assay: Toxicity against PMM; type: cell-based
Experimental: as §7

[7] = system: MRC-5SV2 (human lung fibroblast cell line); assay: Toxicity against MRC-5SV2; type: cell-based
Experimental: as §7

[8] = system: Enterococcus faecalis ATCC 51299 (vanA-positive; vancomycin-resistant); assay: In vitro antibacterial activity, MIC (UCL), VRE; type: cell-based; settings: for MIC: read-out: VRE MIC
In short: as §1

VSE = assay: In vitro antibacterial activity, MIC, VSE; type: cell-based
[9] = chromatographic system (Chrom Log D), pH 7.4, NEU, read-out: LogD 7.4 (NEU)
[10] = human plasma, NEU, read-out: Human PPB (NEU) (converted)
[11] = UCL assay, read-out: MRSA MIC (ug/mL) (UCL)
[12] = NEU, read-out: Aqueous Solubility (uM) (NEU)
[13] = human plasma, NEU, read-out: Human PPB (%) (NEU) (converted)
[14] = rat hepatocytes, NEU, read-out: Rat Hep CLint (uL/min/10x6 cells) (NEU)
[15] = UCL assay, read-out: MSSA MIC (ug/mL) (UCL)
[16] = human liver microsomes, NEU, read-out: HLM CLint (uL/min/mg protein) (NEU)
[17] = rat, hepatocytes, Figure 4, read-out: Rat Hep CLint
[18] = human, liver microsomes, read-out: HLM CLint
[19] = read-out: Human PPB (converted)

Structure (SMILES): CC(C)CN(c1ccc(F)cc1)c1c(-c2ccccn2)nc2cc(F)ccn12 [OSA_001023]
MIC [1, 11]: 8 µg/mL (≈ 21.1 µM) | chromatographic logD (LogD7.4 (Chrom Log D); [9]): 4.3 | solubility (Aqueous solubility; [12]): 11 µM (≈ 4.16 µg/mL) | fraction unbound [2, 13]: 0.0023 | hepatocyte CLint [3, 14]: 110 µL/min/1e6 cells | MIC [4, 15]: 4 µg/mL (≈ 10.6 µM) | microsomal CLint [5, 16]: 13.6 µL/min/mg

Structure (SMILES): CC(C)CN(c1ccc(F)cc1)c1c(-c2ccccn2)nc2ccc(F)cn12 [OSA_001024]
MIC [1, 11]: 8 µg/mL (≈ 21.1 µM) | chromatographic logD (LogD7.4 (Chrom Log D); [9]): > 4.2 | solubility (Aqueous solubility; [12]): 17 µM (≈ 6.43 µg/mL) | fraction unbound [2, 13]: 0.0014 | hepatocyte CLint [3, 14]: 117 µL/min/1e6 cells | MIC [4, 15]: 8 µg/mL (≈ 21.1 µM) | microsomal CLint [5, 16]: 51.2 µL/min/mg

Structure (SMILES): COc1cccc(-c2nc3ccccn3c2N(CC(C)C)c2ccc(F)cc2)n1 [OSA_001025]
MIC [1, 11]: > 32 µg/mL | chromatographic logD (LogD7.4 (Chrom Log D); [9]): > 3.7 | solubility (Aqueous solubility; [12]): 0.7 µM (≈ 0.273 µg/mL) | fraction unbound [2, 13]: < 0.01 | MIC [4, 15]: > 32 µg/mL | microsomal CLint [5, 16]: 86.8 µL/min/mg

Structure (SMILES): c1ccc(-c2nc3ccccc3n2-c2ccc(N3CCCCC3)cc2)nc1 [compound 994]
VRE MIC [8]: 32 µg/mL | PMM TC50 [6]: 5.4 µg/mL | MRSA MIC [1]: 16 µg/mL | MSSA MIC [4]: 32 µg/mL | MRC5 TC50 [7]: 7.0 µg/mL | VSE MIC (VSE): 32 µg/mL

Structure (SMILES): c1ccc(-c2nc3ccccc3n2-c2ccc(N3CCOCC3)cc2)nc1 [compound 995]
VRE MIC [8]: > 32 µg/mL | PMM TC50 [6]: 22.8 µg/mL | MRSA MIC [1]: > 32 µg/mL and 32 µg/mL | MSSA MIC [4]: > 32 µg/mL | MRC5 TC50 [7]: 22.8 µg/mL | VSE MIC (VSE): > 32 µg/mL

Second part, led by results:

MIC ([1]; UCL, read-out: MRSA MIC (UCL)): 4 µg/mL (≈ 11.7 µM) | chromatographic logD (LogD7.4 (Chrom Log D); [9]): 4.3 | solubility (Aqueous solubility; NEU, read-out: Aqueous Solubility (NEU)): 38 µM (≈ 13 µg/mL) | fraction unbound [2, 10]: 0.004 | hepatocyte CLint ([3]; rat hepatocytes, NEU, read-out: Rat Hep CLint (NEU)): 192 µL/min/1e6 cells | MIC ([4]; read-out: MSSA MIC (UCL)): 4 µg/mL (≈ 11.7 µM) | microsomal CLint ([5]; human liver microsomes, NEU, read-out: HLM CLint (NEU)): 159 µL/min/mg
Structure (SMILES): CCN(CC)c1ccc(-c2c(-c3ccccn3)nc3ccccn23)cc1 [OSA_001011]

MIC ([1]; UCL, read-out: MRSA MIC (UCL)): 4 µg/mL (≈ 14 µM) | chromatographic logD (LogD7.4 (Chrom Log D); [9]): 3.3 | Aqueous Solubility (NEU) (Aqueous solubility; NEU): 43 µM | fraction unbound [2, 10]: 0.011 | Rat Hep CLint (NEU) ([3]; rat hepatocytes, NEU): 57.7 uL/min/10x6 cells | MIC ([4]; read-out: MSSA MIC (UCL)): 4 µg/mL (≈ 14 µM) | HLM CLint (NEU) ([5]; human liver microsomes, NEU): 122 uL/min/mg protein
Structure (SMILES): Cc1ccc(-c2c(-c3ccccn3)nc3ccccn23)cc1 [OSA_001018]

MIC [1, 11]: > 32 µg/mL | chromatographic logD (LogD7.4 (Chrom Log D); [9]): 2.4 | solubility (Aqueous solubility; [12]): 5 µM (≈ 1.91 µg/mL) | fraction unbound [2, 13]: 0.11 | hepatocyte CLint [3, 14]: > 300 µL/min/1e6 cells | MIC [4, 15]: > 32 µg/mL | HLM CLint (uL/min/mg protein) (NEU) ([5]; human liver microsomes, NEU): 92 uL/min/mg protein
Structure (SMILES): CS(=O)(=O)c1ccc2nc(-c3ccccn3)c(Nc3ccc(F)cc3)n2c1 [OSA_001020]
PMM TC50 ([6]; PMM): 32 µM | MRC5 TC50 ([7]; MRC5 cells): 64 µM

MIC [8]: > 32 µg/mL | MIC ([1]; 16 h, read-out: MRSA MIC): > 32 µg/mL | MIC ([1]; read-out: MRSA MIC): 32 µg/mL (≈ 111 µM) | chromatographic logD (LogD7.4 (Chrom Log D); pH 7.4, read-out: LogD7.4): 3 | solubility (Aqueous solubility; read-out: Aqueous Solubility): 178 µM (≈ 51.5 µg/mL) | hepatocyte CLint [3, 17]: 49.8 µL/min/1e6 cells | microsomal CLint [5, 18]: 168 µL/min/mg
Structure (SMILES): Fc1ccc(-c2c(-c3ccccn3)nc3ccccn23)cc1 [compound 859]
PMM TC50 [6]: 9.3 µg/mL | activity against MRSA, in words [1]: inactive | MRC5 TC50 [7]: 3.0 µg/mL

MIC [8]: 8 µg/mL (≈ 25 µM) | MIC ([1]; 16 h, read-out: MRSA MIC): 4 µg/mL (≈ 12.5 µM) | MIC ([1]; read-out: MRSA MIC): 4 µg/mL (≈ 12.5 µM) | chromatographic logD (LogD7.4 (Chrom Log D); pH 7.4, read-out: LogD7.4): 3.1 | solubility (Aqueous solubility; read-out: Aqueous Solubility): 5 µM (≈ 1.6 µg/mL) | fraction unbound [2, 19]: 0.01 | hepatocyte CLint [3, 17]: 104 µL/min/1e6 cells | microsomal CLint [5, 18]: 65.6 µL/min/mg
Structure (SMILES): Cc1ccc(-c2c(-c3ccccn3)nc3cc(Cl)ccn23)cc1 [compound 978]

VRE MIC [8]: > 32 µg/mL | MRSA MIC [1]: > 32 µg/mL and 32 µg/mL | MSSA MIC [4]: 32 µg/mL | VSE MIC (VSE): > 32 µg/mL
Structure (SMILES): N#CCc1ccc(-n2c(-c3ccccn3)nc3ccccc32)cc1 [compound 996]
PMM TC50 [6]: 19.9 µg/mL | MRC5 TC50 [7]: 19.9 µg/mL

MIC ([1]; 16 h, read-out: MRSA MIC): 4 µg/mL (≈ 14 µM) | MIC ([1]; read-out: MRSA MIC): 4 µg/mL (≈ 14 µM) | chromatographic logD (LogD7.4 (Chrom Log D); pH 7.4, read-out: LogD7.4): 3.3 | solubility (Aqueous solubility; read-out: Aqueous Solubility): 43 µM (≈ 12.3 µg/mL) | fraction unbound [2, 19]: 0.01 | hepatocyte CLint [3, 17]: 57.7 µL/min/1e6 cells | MIC ([4]; read-out: MSSA MIC): 4 µg/mL (≈ 14 µM) | microsomal CLint [5, 18]: 122 µL/min/mg
Structure (SMILES): Cc1ccc(-c2c(-c3ccccn3)nc3ccccn23)cc1 [compound 1018]

Source: paper PMC10714399, “Open Source Antibiotics: Simple Diarylimidazoles Are Potent against Methicillin-Resistant Staphylococcus aureus” (ACS Infectious Diseases, 2023)
